Laboratory results as given in article PMC10458253, “Unraveling the In Vitro Toxicity Profile of Psychedelic 2C Phenethylamines and Their N-Benzylphenethylamine (NBOMe) Analogues” (Pharmaceuticals, 2023).
Counter-ions that a name gives are not always drawn.

Tests used:
[1] = PAMPA-BBB permeability assay
From the text: In the present study we used a Parallel Artificial Membrane Permeation Assay (PAMPA) with a membrane mimicking the BBB phospholipidic composition (PAMPA-BBB) to evaluate and predict passive, transcellular permeability of the mescaline-NBOMe, 25B-NBOMe and 25N-NBOMe drugs.
The PiON inc database software was used for data analysis.

HepG2 cells = assay: Intracellular ROS (DCFH-DA probe), HepG2; format: cell-based; details: HepG2, positive control, 200 µM, 24 h, vs control cells (0 µM)
Description: (§1) ROS production was evaluated by using the well-known membrane permeable fluorescent probe 2′,7′-dichlorofluorescein diacetate (DCFH-DA). Both cell lines were seeded in 96-well cell culture plates, and pre-incubated with 10 µM DCFH-DA, protected from light, at 37 °C, in a 5% CO2–95% air atmosphere. After 30 min, DCFH-DA was removed, and the cells were exposed to the drugs (0–500 µM for SH-SY5Y cells and 0–1000 µM for HepG2 cells), at 37 °C, in a 5% CO2–95% air atmosphere. Subsequently, after 24 h of exposure, the fluorescence was measured at 485 nm excitation and 530 nm emission wavelengths in a multi-well plate reader (PowerWaveX BioTek Instruments, Winooski, VT, USA). Additionally, tert-butyl hydroperoxide (200 µM, 24 h) was used as a positive control for ROS overproduction. The results were expressed as percentage of control cells. At least four independent experiments were performed, in triplicate.

[2] = system: differentiated SH-SY5Y cells; assay: Intracellular ROS (DCFH-DA probe), differentiated SH-SY5Y; format: cell-based; details: positive control, 200 µM, 24 h, vs negative control cells
Description: Reactive oxygen species (ROS) production was evaluated using the 2′,7′-dichlorofluorescein diacetate (DCFH-DA) probe. In the cytoplasm, DCFH-DA is hydrolyzed producing 2′,7′-dichlorodihydrofluorescein (DCFH) that, in the presence of ROS, is easily oxidized to the highly fluorescent 2′,7′-dichlorofluorescein (DCF).
as §1

[3] = pH 7.4; cited from earlier work

Structure (SMILES) | −Log Pe ± SD [1] | other results
CC(C)NCC(O)COc1cccc2ccccc12 (stereo not drawn) [Propanolol. HCl, reference compound] | 4.6 ± 0.42 | 
CC(C)(C)OO [t-BHP, tert-butyl hydroperoxide] |  | ROS intracellular levels (HepG2 cells): significant increase in ROS levels; ROS intracellular levels [2]: significant increase in ROS intracellular levels
C=C[C@H]1C[N@@]2CC[C@H]1C[C@@H]2[C@@H](O)c1ccnc2ccc(OC)cc12 [Quinidine. HCl, reference compound] | 4.8 ± 0.39 | 
CC(=O)[C@H]1CC[C@H]2[C@@H]3CCC4=CC(=O)CC[C@]4(C)[C@H]3CC[C@]12C [Progesterone, reference compound] | 4.5 ± 0.44 | 
CC(=O)Nc1ccccc1 [Acetanilide] |  | CHI (IAM) [3]: 11.57
